Target: T1, purified human IDO protein (Homo sapiens, UniProt P14902)
T1 construct: 2 extra amino acids (linker from the BglII cloning site of pQE70); made in house; host or cells: E. coli M15(pREP4) with plasmid pQE70-hIDO
Experiment: Enzymatic IDO assay (kynurenine production, absorbance at 480 nm)
Format: biochemical
Details: recombinant human IDO; values reported in ranges; read-out: hIDO IC50
Procedure, shortened: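 Inhibitors (final 1 mM to 5 nM, in 50 mM potassium phosphate) preincubated with enzyme 5 min at 25 °C, then 200 μM L-tryptophan added, 15 min at 37 °C. TCA stop and 60 °C hydrolysis to kynurenine, detected with p-dimethylaminobenzaldehyde at 480 nm. IC50 by nonlinear regression.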

T1 sequence (P14902 whole entry P110S/E119G): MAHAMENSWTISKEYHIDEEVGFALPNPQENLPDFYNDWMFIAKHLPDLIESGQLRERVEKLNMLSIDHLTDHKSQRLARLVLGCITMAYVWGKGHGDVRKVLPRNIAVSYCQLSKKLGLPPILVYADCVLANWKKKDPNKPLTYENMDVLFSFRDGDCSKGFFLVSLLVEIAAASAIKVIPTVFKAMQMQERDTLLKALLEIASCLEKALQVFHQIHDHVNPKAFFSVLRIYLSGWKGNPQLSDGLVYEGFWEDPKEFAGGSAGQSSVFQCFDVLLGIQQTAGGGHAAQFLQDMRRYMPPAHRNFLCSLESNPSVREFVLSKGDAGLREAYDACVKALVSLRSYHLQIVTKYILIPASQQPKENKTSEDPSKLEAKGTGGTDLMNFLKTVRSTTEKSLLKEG

IC50 [nM]	Structure (SMILES)
< 1000	CC(=O)NC(C(=O)Nc1ccc(CCOc2ccccc2-c2c[nH]cn2)c(Cl)c1)C1CCOCC1 (stereo not shown) [compound 1337, N-(4-(2-(2-(1H-imidazol-4-yl)phenoxy)ethyl)-3-chlorophenyl)-2-acetamido-2-(tetrahydro-2H-pyran-4-yl)acetamide]
1000 to 10000	O=C(Nc1ccc(CCOc2ccccc2-c2c[nH]cn2)c(Cl)c1)C1CCCCN1 (stereo not shown) [compound 1344, N-(4-(2-(2-(1H-imidazol-4-yl)phenoxy)ethyl)-3-chlorophenyl)piperidine-2-carboxamide]
< 1000	Nc1ncccc1C(=O)Nc1ccc(CCOc2ccccc2-c2c[nH]cn2)c(Cl)c1 [compound 1345, N-(4-(2-(2-(1H-imidazol-4-yl)phenoxy)ethyl)-3-chlorophenyl)-2-aminonicotinamide]
1000 to 10000	O=C(Nc1cccc(OC2CCOC2)c1)Nc1ccc(CCOc2ccccc2-c2c[nH]cn2)c(Cl)c1 (stereo not shown) [compound 1346, 1-(4-(2-(2-(1H-imidazol-4-yl)phenoxy)ethyl)-3-chlorophenyl)-3-(3-(tetrahydrofuran-3-yloxy)phenyl)urea]
< 1000	O=C(Nc1ccccc1)Nc1ccc(CCOc2ccccc2-c2c[nH]cn2)c(Cl)c1 [compound 1347, 1-(4-(2-(2-(1H-imidazol-4-yl)phenoxy)ethyl)-3-chlorophenyl)-3-phenylurea]
1000 to 10000	O=C(COc1ccccc1-c1c[nH]cn1)C1CCCCC1 [compound 1354, 2-(2-(1H-imidazol-4-yl)phenoxy)-1-cyclohex-ylethanone]
< 1000	O=C(Cc1cncnc1)Nc1ccc(CCOc2ccccc2-c2c[nH]cn2)c(Cl)c1 [compound 1366, N-(4-(2-(2-(1H-imidazol-4-yl)phenoxy)ethyl)-3-chlorophenyl)-2-(pyrimidin-5-yl)acetamide]

Source: patent US8722720B2, “Imidazole derivatives as IDO inhibitors” (NewLink Genetics Corporation, priority 2010, dated 2014)
